Structures are written as SMILES.

We go through ten molecules from publication PMC10865350, “Investigating Polypharmacology through Targeting Known Human Neutrophil Elastase Inhibitors to Proteinase 3” (Journal of Chemical Information and Modeling, 2024).

The first assay has as its system human neutrophil elastase (HNE). The assay can be described thus: HNE inhibition IC50 reported by Bayer HealthCare AG (literature values). It is filed as biochemical. Conditions: 298.15 K; calculated from Bayer HealthCare AG IC50 values, Nussbaum et al. refs 9-11. The source says:
To ensure we had the best models to represent the selected ligands and their interactions with the protein, we explored four different force field combinations for protein and ligands (Table 2) and compared the predicted values to published experimental data for HNE. […] The predicted free energies obtained with MSλD are provided in Table S3 together with the free energies derived from published experimental data.
Consider `CC1=C(C#N)[C@@H](c2ccc(C#N)cc2)n2ncnc2N1c1cccc(C(F)(F)F)c1` [Compound 2], for which the “ΔGexpt HNE (ΔG = RTln(IC50))” value is recorded as -10.6 kcal/mol.
Still for that read-out and setting: the figure for `CNS(=O)(=O)Nc1nc2n(n1)[C@H](c1ccc(C#N)cc1)C(C#N)=C(C)N2c1cccc(C(F)(F)F)c1` [Compound 10] is -9.9 kcal/mol; for `CC1=C(C#N)[C@@H](c2ccc(C#N)cc2)n2nc(N)nc2N1c1cccc(C(F)(F)F)c1` [Compound 3] it is -11.7 kcal/mol; for `CNC(=O)Nc1nc2n(n1)[C@H](c1ccc(C#N)cc1)C(C#N)=C(C)N2c1cccc(C(F)(F)F)c1` [Compound 8] it is -12.9 kcal/mol.
For the molecule `COc1nc2n(n1)[C@H](c1ccc(C#N)cc1)C(C#N)=C(C)N2c1cccc(C(F)(F)F)c1` [Compound 4], the “ΔGexpt HNE (ΔG = RTln(IC50))” value was -9.7 kcal/mol.
Same read-out and setting: next, `CNc1nc2n(n1)[C@H](c1ccc(C#N)cc1)C(C#N)=C(C)N2c1cccc(C(F)(F)F)c1` [Compound 5]: -12.5 kcal/mol.
Same read-out and setting: the figure for `COC(=O)Nc1nc2n(n1)[C@H](c1ccc(C#N)cc1)C(C#N)=C(C)N2c1cccc(C(F)(F)F)c1` [Compound 7] is -13.3 kcal/mol; for `CC1=C(C#N)[C@@H](c2ccc(C#N)cc2)n2nc(NS(C)(=O)=O)nc2N1c1cccc(C(F)(F)F)c1` [Compound 9] it is -10.8 kcal/mol; for `CC1=C(C#N)[C@@H](c2ccc(C#N)cc2)n2nc(NC(=O)C3CC3)nc2N1c1cccc(C(F)(F)F)c1` [Compound 6] it is -12.8 kcal/mol.

Another assay has as its target T1, HNE (Homo sapiens, UniProt P08246).
T1 construct: purchased Athens Research and Technology
T1 sequence (P08246 30-267): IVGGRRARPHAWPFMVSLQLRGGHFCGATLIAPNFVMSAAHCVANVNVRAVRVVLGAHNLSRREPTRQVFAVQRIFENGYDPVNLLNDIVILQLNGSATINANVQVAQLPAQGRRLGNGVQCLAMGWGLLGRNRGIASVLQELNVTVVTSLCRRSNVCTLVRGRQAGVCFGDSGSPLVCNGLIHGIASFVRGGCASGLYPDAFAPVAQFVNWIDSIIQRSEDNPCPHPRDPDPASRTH
Briefly: Enzymatic activity assay, HNE (fluorogenic substrate MeOSuc-AAPV-AMC). The following applies: 0.5 nM enzyme, 5 μM substrate, triplicates; best enantiomer for compounds 5-8; read-out: IC50 HNE. It is filed as biochemical. Here is the method:
(§1) II.1 Experimental details
(§2) Chemicals. All chemicals and reagents were of analytical grade. Enzymes, PR3 and HNE, were purchased from Athens Research and Technology.
(§3) India) using published procedures.42 The substrate of HNE (MeOSuc-AAPV-AMC) was supplied by Santa Cruz Biotechnology.
(§4) Activity assay. The enzymatic assays for both PR3 and HNE were conducted according to the method published in (Budnjo et al., 2014) with minor modifications. Briefly, 0.5 nM of enzyme […]
(§5) same buffer containing the inhibitors at various concentrations for 30 min at RT. For PR3, the […]
(§6) 320, emission filter 420) at a final concentration of 5 μM while the HNE reaction was started by […]
(§7) at a final concentration of 5 μM. The fluorescent signal was read every 30 second for 30 min at 30 °C using a fluorescent plate reader (Tecan Spark). The enzymatic activity was measured from the initial linear portion of the slope (fluorescent signal/min) of the time-course curve of reaction progress. The activity data were produced in triplicates. Data were fitted using nonlinear regression analysis (GraphPad Prism v.9) to determine the IC50 values.
On to `CNC(=O)Nc1nc2n(n1)[C@H](c1ccc(C#N)cc1)C(C#N)=C(C)N2c1cccc(C(F)(F)F)c1` [Compound 8], for which the IC50 worked out at 0.8 ± 0.1 nM.
As for `CNc1nc2n(n1)[C@H](c1ccc(C#N)cc1)C(C#N)=C(C)N2c1cccc(C(F)(F)F)c1` [Compound 5], the IC50 stood at 1.3 ± 0.2 nM.
`COC(=O)Nc1nc2n(n1)[C@H](c1ccc(C#N)cc1)C(C#N)=C(C)N2c1cccc(C(F)(F)F)c1` [Compound 7]: the IC50 is 1.1 ± 0.1 nM.
The same measure, in the same setting: the figure for `CC1=C(C#N)[C@@H](c2ccc(C#N)cc2)n2nc(NC(=O)C3CC3)nc2N1c1cccc(C(F)(F)F)c1` [Compound 6] is 0.6 nM.

Staying with this assay, now noted: best enantiomer for compounds 5-8; read-out: pIC50 HNE (converted).
With `CNC(=O)Nc1nc2n(n1)[C@H](c1ccc(C#N)cc1)C(C#N)=C(C)N2c1cccc(C(F)(F)F)c1` [Compound 8], the IC50 was 0.794 nM.
On the same count and under the same terms, next, `CNc1nc2n(n1)[C@H](c1ccc(C#N)cc1)C(C#N)=C(C)N2c1cccc(C(F)(F)F)c1` [Compound 5]: 1.26 nM.
The same measure, in the same setting: next, `COC(=O)Nc1nc2n(n1)[C@H](c1ccc(C#N)cc1)C(C#N)=C(C)N2c1cccc(C(F)(F)F)c1` [Compound 7]: 1.26 nM; `CC1=C(C#N)[C@@H](c2ccc(C#N)cc2)n2nc(NC(=O)C3CC3)nc2N1c1cccc(C(F)(F)F)c1` [Compound 6]: 0.794 nM.

The target of a further assay is T2, Proteinase 3 (PR3) (Homo sapiens, UniProt P24158).
T2 construct: purchased Athens Research and Technology
T2 sequence (P24158 28-256): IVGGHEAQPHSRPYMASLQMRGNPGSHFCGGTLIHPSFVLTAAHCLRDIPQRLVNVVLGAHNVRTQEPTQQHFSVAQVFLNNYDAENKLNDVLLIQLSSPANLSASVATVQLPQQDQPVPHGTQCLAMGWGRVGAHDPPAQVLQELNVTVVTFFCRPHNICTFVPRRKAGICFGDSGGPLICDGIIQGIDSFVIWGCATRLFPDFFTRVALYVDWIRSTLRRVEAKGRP
Briefly: Enzymatic activity assay, PR3 (FRET peptide Abz-VADnVADYQ-EDDnp). Format: biochemical. Conditions: 0.5 nM enzyme, 5 μM FRET peptide, triplicates; best enantiomer for compounds 5-8; read-out: IC50 PR3. The method, then: as §1, §2, §3, §4, §5, §6, §7
For `CNC(=O)Nc1nc2n(n1)[C@H](c1ccc(C#N)cc1)C(C#N)=C(C)N2c1cccc(C(F)(F)F)c1` [Compound 8], the IC50 was found to be 58.9 ± 6 nM.
The same measure, in the same setting: the figure for `CNc1nc2n(n1)[C@H](c1ccc(C#N)cc1)C(C#N)=C(C)N2c1cccc(C(F)(F)F)c1` [Compound 5] is 190 ± 10 nM; for `CC1=C(C#N)[C@@H](c2ccc(C#N)cc2)n2nc(NC(=O)C3CC3)nc2N1c1cccc(C(F)(F)F)c1` [Compound 6] it is 7.7 ± 0.6 nM.

Still in this assay, the particulars now being: best enantiomer for compounds 5-8; read-out: pIC50 PR3 (converted).
In the case of `COC(=O)Nc1nc2n(n1)[C@H](c1ccc(C#N)cc1)C(C#N)=C(C)N2c1cccc(C(F)(F)F)c1` [Compound 7], the IC50 is 20 nM.

For a further assay, the target named is Proteinase 3 (PR3). The description is as above. It is filed as biochemical, human. Conditions: selectivity: PR3 IC50 with respect to HNE IC50. Here is the method:
as §1, §2, §3, §4, §5, §6, §7
As to `CNC(=O)Nc1nc2n(n1)[C@H](c1ccc(C#N)cc1)C(C#N)=C(C)N2c1cccc(C(F)(F)F)c1` [Compound 8], the “IC50 ratio (PR3/HNE)” value is reported as 74.
Same read-out and setting: the figure for `CNc1nc2n(n1)[C@H](c1ccc(C#N)cc1)C(C#N)=C(C)N2c1cccc(C(F)(F)F)c1` [Compound 5] is 146; for `COC(=O)Nc1nc2n(n1)[C@H](c1ccc(C#N)cc1)C(C#N)=C(C)N2c1cccc(C(F)(F)F)c1` [Compound 7] it is 19; for `CC1=C(C#N)[C@@H](c2ccc(C#N)cc2)n2nc(NC(=O)C3CC3)nc2N1c1cccc(C(F)(F)F)c1` [Compound 6] it is 13.

For another assay, the system named is human neutrophil elastase (HNE).
Experiment: not given
Conditions: Bayer HealthCare AG value; cited from earlier work.
For the molecule `CC1=C(C#N)[C@@H](c2ccc(C#N)cc2)n2ncnc2N1c1cccc(C(F)(F)F)c1` [Compound 2], the IC50 was 15 nM.
For `CNS(=O)(=O)Nc1nc2n(n1)[C@H](c1ccc(C#N)cc1)C(C#N)=C(C)N2c1cccc(C(F)(F)F)c1` [Compound 10], the IC50 is 50 nM.
Take `CC1=C(C#N)[C@@H](c2ccc(C#N)cc2)n2nc(N)nc2N1c1cccc(C(F)(F)F)c1` [Compound 3]: the IC50 was 2.5 nM.
Consider `CNC(=O)Nc1nc2n(n1)[C@H](c1ccc(C#N)cc1)C(C#N)=C(C)N2c1cccc(C(F)(F)F)c1` [Compound 8], for which the IC50 is 0.3 nM.
As to `CC1=C(C#N)[C@@H](c2ccc(C#N)cc2)n2nc(NC(=O)C3CCCCC3)nc2N1c1cccc(C(F)(F)F)c1` [Compound 11], the IC50 is below 0.3 nM.
Turning to `COc1nc2n(n1)[C@H](c1ccc(C#N)cc1)C(C#N)=C(C)N2c1cccc(C(F)(F)F)c1` [Compound 4], the IC50 is 69 nM.
`CNc1nc2n(n1)[C@H](c1ccc(C#N)cc1)C(C#N)=C(C)N2c1cccc(C(F)(F)F)c1` [Compound 5]: the IC50 is 0.59 nM.
As to `COC(=O)Nc1nc2n(n1)[C@H](c1ccc(C#N)cc1)C(C#N)=C(C)N2c1cccc(C(F)(F)F)c1` [Compound 7], the IC50 is 0.17 nM.
As for `CC1=C(C#N)[C@@H](c2ccc(C#N)cc2)n2nc(NS(C)(=O)=O)nc2N1c1cccc(C(F)(F)F)c1` [Compound 9], the IC50 is 12 nM.
In the case of `CC1=C(C#N)[C@@H](c2ccc(C#N)cc2)n2nc(NC(=O)C3CC3)nc2N1c1cccc(C(F)(F)F)c1` [Compound 6], the IC50 was 0.35 nM.
